Changes are numbered by the printed parent chain. Read-outs that look alike come from different tables or passages of the source.
What was measured:
Test in all cases: KINOMEscan (ScanMAX) kinase profiling
Assay type in all cases: binding
[1] = molecular target: T1, panel of 468 kinases (Homo sapiens, UniProt O43293); settings: DAPK3; 1 μM; read-out: % control
T1 construct: purchased KINOMEscan (ScanMAX) service

[2] = molecular target: T2, panel of 468 kinases (Homo sapiens, UniProt P08581, Y1235D); settings: MET(Y1235D); 1 μM; read-out: % control
T2 construct: purchased KINOMEscan (ScanMAX) service

[3] = molecular target: T3, panel of 468 kinases (Homo sapiens, UniProt P23458); settings: 1 μM, read-out: % control
T3 construct: purchased KINOMEscan (ScanMAX) service

[4] = molecular target: T4, panel of 468 kinases (Homo sapiens, UniProt P36888, D835V); settings: FLT3(D835V); 1 μM; read-out: % control
T4 construct: purchased KINOMEscan (ScanMAX) service
T4 sequence (P36888 27-993 D835V): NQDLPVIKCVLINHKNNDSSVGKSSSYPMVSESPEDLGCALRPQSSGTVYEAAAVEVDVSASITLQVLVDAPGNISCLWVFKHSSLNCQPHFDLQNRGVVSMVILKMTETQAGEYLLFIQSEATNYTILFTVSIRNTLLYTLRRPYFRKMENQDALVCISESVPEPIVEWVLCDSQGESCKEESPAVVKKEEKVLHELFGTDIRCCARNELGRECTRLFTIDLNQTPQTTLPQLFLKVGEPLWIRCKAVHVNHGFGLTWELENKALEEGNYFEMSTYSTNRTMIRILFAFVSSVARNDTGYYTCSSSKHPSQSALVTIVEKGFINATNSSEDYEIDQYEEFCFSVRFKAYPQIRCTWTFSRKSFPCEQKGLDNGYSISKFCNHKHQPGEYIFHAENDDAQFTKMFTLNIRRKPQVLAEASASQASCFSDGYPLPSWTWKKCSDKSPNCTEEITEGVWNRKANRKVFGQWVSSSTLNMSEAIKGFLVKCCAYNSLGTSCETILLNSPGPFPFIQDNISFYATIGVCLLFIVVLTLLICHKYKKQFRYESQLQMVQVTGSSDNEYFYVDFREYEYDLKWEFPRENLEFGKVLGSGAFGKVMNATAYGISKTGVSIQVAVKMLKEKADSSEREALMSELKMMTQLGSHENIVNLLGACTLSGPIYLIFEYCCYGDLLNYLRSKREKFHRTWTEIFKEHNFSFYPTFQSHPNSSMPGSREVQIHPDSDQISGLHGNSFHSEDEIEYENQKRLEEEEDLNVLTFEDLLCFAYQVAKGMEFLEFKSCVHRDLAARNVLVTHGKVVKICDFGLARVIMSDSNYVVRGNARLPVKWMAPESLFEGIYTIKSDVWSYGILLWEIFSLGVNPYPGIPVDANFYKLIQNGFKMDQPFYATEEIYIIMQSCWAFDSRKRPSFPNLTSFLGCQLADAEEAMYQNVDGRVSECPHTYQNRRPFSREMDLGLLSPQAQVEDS

[5] = molecular target: T5, panel of 468 kinases (Homo sapiens, UniProt P36888, D835Y); settings: FLT3(D835Y); 1 μM; read-out: % control
T5 construct: purchased KINOMEscan (ScanMAX) service
T5 sequence (P36888 27-993 D835Y): T4 sequence (P36888 27-993 D835V) with V809Y

[6] = molecular target: T6, panel of 468 kinases (Homo sapiens, UniProt P42336, Q546K); settings: PIK3CA(Q546K); 1 μM; read-out: % control
T6 construct: purchased KINOMEscan (ScanMAX) service

[7] = molecular target: T7, panel of 468 kinases (Homo sapiens, UniProt Q5S007); settings: LRRK2; 1 μM; read-out: % control
T7 construct: purchased KINOMEscan (ScanMAX) service

T2 sequence (P08581 25-1390 Y1235D): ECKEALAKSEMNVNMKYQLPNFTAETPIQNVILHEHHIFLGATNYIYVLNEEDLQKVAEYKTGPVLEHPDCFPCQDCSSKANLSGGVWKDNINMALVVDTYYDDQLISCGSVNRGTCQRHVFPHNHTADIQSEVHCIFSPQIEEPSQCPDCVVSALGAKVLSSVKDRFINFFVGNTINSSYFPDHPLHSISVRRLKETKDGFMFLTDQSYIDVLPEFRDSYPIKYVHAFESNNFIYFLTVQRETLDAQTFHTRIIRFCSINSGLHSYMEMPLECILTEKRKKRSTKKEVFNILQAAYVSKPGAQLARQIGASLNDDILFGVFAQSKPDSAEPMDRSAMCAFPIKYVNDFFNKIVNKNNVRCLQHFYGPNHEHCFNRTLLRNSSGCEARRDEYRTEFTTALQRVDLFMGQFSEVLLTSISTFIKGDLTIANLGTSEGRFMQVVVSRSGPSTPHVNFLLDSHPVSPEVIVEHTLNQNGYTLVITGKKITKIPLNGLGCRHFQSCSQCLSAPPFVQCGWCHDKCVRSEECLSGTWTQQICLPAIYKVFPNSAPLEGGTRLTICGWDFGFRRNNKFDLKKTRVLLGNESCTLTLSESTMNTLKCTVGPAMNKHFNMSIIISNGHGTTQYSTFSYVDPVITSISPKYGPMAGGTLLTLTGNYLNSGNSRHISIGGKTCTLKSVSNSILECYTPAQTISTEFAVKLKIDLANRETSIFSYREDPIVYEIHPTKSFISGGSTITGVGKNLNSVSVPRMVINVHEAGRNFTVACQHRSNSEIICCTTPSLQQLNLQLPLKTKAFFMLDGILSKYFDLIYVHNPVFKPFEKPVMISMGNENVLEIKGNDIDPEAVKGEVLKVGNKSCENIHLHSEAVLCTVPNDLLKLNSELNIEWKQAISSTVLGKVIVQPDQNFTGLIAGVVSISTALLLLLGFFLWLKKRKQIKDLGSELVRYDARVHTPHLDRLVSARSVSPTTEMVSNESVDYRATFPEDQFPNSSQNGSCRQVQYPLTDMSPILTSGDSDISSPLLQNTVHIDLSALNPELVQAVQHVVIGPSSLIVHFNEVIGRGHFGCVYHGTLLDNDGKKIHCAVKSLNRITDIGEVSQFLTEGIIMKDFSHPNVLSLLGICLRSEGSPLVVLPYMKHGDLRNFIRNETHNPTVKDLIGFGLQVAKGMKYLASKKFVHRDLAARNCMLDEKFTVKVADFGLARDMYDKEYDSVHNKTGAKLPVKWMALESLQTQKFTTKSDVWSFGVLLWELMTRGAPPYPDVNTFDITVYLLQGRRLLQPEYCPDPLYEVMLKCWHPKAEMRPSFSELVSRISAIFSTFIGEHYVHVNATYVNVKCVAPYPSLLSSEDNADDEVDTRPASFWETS
T6 sequence (P42336 whole entry Q546K): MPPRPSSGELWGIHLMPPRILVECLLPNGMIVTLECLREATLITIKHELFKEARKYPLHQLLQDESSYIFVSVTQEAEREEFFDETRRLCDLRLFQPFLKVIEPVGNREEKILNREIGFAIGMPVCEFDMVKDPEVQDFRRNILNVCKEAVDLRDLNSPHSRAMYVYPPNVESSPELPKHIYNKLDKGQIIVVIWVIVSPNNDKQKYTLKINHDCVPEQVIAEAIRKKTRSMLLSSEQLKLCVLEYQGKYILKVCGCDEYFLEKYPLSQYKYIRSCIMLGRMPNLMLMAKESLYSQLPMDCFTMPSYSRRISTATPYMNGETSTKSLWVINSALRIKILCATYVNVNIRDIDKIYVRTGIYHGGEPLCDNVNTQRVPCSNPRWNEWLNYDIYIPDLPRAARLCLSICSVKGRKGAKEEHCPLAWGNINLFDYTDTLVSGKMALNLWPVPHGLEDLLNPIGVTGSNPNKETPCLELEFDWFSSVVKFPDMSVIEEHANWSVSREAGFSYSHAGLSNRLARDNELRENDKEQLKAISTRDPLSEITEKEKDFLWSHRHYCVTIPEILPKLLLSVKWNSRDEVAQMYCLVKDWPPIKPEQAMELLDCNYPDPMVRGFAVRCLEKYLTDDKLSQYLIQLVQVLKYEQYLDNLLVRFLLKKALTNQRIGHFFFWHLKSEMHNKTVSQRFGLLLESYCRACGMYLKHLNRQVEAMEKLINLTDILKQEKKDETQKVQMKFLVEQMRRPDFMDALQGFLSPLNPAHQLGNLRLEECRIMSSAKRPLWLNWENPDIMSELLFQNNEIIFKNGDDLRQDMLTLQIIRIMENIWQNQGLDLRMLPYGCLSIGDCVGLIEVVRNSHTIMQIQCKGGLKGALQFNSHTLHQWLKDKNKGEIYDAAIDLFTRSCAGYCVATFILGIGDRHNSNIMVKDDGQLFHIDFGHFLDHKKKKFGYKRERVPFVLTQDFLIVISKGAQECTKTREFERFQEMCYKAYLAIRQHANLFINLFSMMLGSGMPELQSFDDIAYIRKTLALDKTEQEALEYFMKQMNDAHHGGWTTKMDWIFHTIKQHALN
T3 sequence (P23458 whole entry): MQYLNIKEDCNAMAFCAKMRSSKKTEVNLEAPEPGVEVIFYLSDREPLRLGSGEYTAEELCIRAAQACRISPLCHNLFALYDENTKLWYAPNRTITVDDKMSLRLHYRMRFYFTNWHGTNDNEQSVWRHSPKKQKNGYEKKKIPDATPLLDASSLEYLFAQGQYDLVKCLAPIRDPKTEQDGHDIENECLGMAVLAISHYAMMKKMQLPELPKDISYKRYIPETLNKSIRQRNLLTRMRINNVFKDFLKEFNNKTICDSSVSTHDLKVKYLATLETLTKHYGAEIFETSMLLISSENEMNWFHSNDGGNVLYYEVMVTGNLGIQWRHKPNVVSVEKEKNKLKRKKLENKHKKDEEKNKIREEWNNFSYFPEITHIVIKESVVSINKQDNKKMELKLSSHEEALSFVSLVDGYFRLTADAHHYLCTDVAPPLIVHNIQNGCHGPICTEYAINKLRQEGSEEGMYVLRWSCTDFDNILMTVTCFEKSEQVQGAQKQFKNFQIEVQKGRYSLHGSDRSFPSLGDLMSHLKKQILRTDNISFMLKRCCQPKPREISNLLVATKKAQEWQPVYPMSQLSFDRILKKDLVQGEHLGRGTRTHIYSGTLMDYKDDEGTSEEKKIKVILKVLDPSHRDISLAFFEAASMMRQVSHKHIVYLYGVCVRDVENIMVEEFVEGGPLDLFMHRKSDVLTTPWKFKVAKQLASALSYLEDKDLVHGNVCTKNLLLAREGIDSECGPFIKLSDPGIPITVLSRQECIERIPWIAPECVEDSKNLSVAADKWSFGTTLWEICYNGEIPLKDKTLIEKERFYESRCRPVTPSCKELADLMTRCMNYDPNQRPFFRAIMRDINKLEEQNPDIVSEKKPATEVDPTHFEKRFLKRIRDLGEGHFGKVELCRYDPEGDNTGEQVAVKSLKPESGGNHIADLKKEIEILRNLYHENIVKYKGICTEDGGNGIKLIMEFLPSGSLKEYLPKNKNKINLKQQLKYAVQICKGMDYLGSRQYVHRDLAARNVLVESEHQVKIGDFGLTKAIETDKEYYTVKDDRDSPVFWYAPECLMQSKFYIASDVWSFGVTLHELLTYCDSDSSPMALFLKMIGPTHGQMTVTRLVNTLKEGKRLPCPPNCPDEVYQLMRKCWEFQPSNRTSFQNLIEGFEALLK
T1 sequence (O43293 whole entry): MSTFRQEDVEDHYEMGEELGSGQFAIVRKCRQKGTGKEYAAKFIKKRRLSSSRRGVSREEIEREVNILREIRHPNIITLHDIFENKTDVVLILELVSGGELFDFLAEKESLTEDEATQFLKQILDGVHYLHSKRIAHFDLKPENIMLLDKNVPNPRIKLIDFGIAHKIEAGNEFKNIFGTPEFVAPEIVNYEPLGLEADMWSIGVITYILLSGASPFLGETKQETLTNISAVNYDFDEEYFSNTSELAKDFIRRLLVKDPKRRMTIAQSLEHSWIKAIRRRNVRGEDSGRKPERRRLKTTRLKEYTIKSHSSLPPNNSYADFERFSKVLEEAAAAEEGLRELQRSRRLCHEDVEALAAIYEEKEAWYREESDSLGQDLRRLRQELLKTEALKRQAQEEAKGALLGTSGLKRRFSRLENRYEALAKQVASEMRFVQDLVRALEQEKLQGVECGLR

Compound | remaining binding at 1 µM [1] [%] | remaining binding at 1 µM [2] [%] | remaining binding at 1 µM ([3]; JAK1(JH1domain-catalytic)) [%] | remaining binding at 1 µM ([3]; JAK1(JH2domain-pseudokinase)) [%] | remaining binding at 1 µM [4] [%] | remaining binding at 1 µM [5] [%] | remaining binding at 1 µM [6] [%] | remaining binding at 1 µM [7] [%]
CNc1nc(Nc2ccc(S(=O)(=O)N3CCC(N4CCOCC4)CC3)cc2OC)nc2[nH]cc(Cl)c12 [Compound 12, 5-chloro-N2-(2-methoxy-4-((4-morpholinopiperidin-1-yl)sulfonyl)phenyl)-N4-methyl-7H-pyrrolo[2,3-d]pyrimidine-2,4-diamine] | 35 | 100 | 100 | 73 | 72 | 96 | 50 | 0.8
CNc1nc(Nc2ccc(C(=O)N3CCC(N4CCOCC4)CC3)c3c2OCO3)nc2[nH]cc(Cl)c12 [Compound 75, (7-((5-chloro-4-(methylamino)-7H-pyrrolo[2,3-d]pyrimidin-2-yl)amino)benzo[d][1,3]dioxol-4-yl)(4-morpholinopiperidin-1-yl)methanone] | 16 | 100 | 100 | 64 | 1.8 | 14 | 65 | 1.4
CNc1nc(Nc2ccc(P3(=O)CCN(C4CCOCC4)CC3)cc2OC)nc2[nH]cc(Cl)c12 [Compound 77, 4-(4-((5-chloro-4-(methylamino)-7H-pyrrolo[2,3-d]pyrimidin-2-yl)amino)-3-methoxyphenyl)-1-(tetrahydro-2H-pyran-4-yl)-1,4-azaphosphinane 4-oxide] | 9.9 | 100 | 100 | 34 | 9.7 | 47 | 46 | 0.4

Source: patent publication US12479847B2 (DANA-FARBER CANCER INSTITUTE, INC., priority 2019, dated 2025)
